Experimental data reported in patent US20220202964A1, “HEPARANASE COMPOUNDS AND METHODS OF USE” (University of Florida Research Foundation, Incorporated, priority 2019, published 2022).
Values joined by “and” are separate entries in the source; they are usually repeats but may differ in a detail not shown here. Equal entries are not always repeated.

Legend:
heparanase [1] = target: T1, heparanase (Homo sapiens, UniProt Q9Y251); assay: HPLC analysis of compounds 1-4 with heparanase; format: biochemical; settings: 5 μM, heparanase 1 μg, 4 hours, 37° C., NaOAc pH 5.0
T1 sequence (Q9Y251 36-543): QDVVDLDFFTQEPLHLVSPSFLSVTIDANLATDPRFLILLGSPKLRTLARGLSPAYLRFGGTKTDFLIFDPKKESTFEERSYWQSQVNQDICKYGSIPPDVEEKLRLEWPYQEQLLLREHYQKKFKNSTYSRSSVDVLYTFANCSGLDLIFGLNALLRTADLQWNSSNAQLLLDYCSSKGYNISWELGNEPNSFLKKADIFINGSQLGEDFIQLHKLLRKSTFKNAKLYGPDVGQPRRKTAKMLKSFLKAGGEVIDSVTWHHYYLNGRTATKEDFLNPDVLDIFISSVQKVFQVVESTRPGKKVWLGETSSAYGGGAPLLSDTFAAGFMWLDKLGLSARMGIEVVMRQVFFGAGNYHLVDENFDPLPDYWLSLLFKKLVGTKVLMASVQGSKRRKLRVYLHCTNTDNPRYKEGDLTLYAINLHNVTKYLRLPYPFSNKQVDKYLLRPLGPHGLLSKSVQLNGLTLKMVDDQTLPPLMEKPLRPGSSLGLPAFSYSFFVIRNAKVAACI
Experimental: Heparanase (1 μg, 20 μL) was added to the compounds 1-4 solution (180 μL, 5 μM) in 40 mM NaOAc buffer (pH 5.0) and the mixture was incubated for 4 hours at 37° C. The resulting mixtures were injected into HPLC for analysis. HPLC analysis was performed under the following conditions—mobile phase A: water with 0.1% TFA; B: acetonitrile with 0.1% TFA; 0-20 min: gradient elution, 25-95% B. The trace was monitored by DAD detector at 315 nm.

β-Glucuronidase = target: T2, β-Glucuronidase (Homo sapiens, UniProt P08236); assay: Fluorescence response to biological species: β-glucuronidase; format: biochemical; settings: 5 μM; β-glucuronidase 5 μg; 4 h, 37° C.
T2 sequence (P08236 23-651): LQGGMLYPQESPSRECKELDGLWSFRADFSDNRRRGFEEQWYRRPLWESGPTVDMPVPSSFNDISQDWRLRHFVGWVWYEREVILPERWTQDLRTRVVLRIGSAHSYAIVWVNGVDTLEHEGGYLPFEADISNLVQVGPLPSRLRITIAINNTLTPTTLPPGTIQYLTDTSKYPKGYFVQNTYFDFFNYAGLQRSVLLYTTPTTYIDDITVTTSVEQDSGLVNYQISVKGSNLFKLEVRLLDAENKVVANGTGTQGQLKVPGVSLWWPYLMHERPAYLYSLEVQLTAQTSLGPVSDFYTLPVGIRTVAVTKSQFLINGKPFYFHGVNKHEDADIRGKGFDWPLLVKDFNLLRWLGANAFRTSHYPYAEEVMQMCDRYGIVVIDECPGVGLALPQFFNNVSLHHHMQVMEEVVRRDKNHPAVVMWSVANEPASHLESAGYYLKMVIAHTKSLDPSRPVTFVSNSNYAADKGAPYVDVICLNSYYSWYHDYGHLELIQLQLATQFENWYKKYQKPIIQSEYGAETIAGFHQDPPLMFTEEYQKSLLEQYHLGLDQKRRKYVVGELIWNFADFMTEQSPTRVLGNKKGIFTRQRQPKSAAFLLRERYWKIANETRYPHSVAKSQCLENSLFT
Experimental: 5 μM compound 1 (HADP) was incubated with various biological species at the indicated amount/concentration in 96-well microplate. Cysteine (5 mM), Glutathione (5 mM), H2O2 (100 μM), Esterase, Chondroitinase ABC, Hyaluronidase, Lysozyme, β-Glucuronidase, β-Glucosidase (5 μg each) and heparanase (2 μg). For Chondroitinase ABC and Hyaluronidase, 50 μg was also tested. Each sample was performed in triplicates. Then the microplate was sealed with sealing film and incubated at 37° C. for 4 hours. Fluorescence intensity was recorded on Spectramax M5 Multimode plate reader (Molecular Devices, USA). λex/em=365 nm/455 nm.

[2] = pH profile of fluorescence / pKa; format: physicochemical; settings: pH range from 1 to 13
Experimental: So, pH profiles of the fluorophore DiFMU and Compound 1 (HADP) were evaluated. […] In contrast, the pKa of 4-methylumbelliferone is ca. 7.8. […] Moreover, the introduction of the fluorine substituents increased the quantum yield and improved the photostability, enabling highly sensitive detection for heparanase.

heparanase [3] = target: T1, heparanase; assay: Kinetics and detection limit of heparanase by Compound 1 (HADP); format: biochemical
Experimental: To a solution of 20 μL, of 50 μM HADP (compound 1) and 160 μL 40 mM NaOAc buffer (pH 5.0) buffers was added 20 μL, heparanase with various concentrations (0-0.1 μg/μL) in 96-well microplate. Then final concentration of heparanase is from 0-0.01 μg/μL. Each concentration was performed in triplicates. Then the fluorescence intensity was recorded on Spectramax M5 Multimode plate reader (Molecular Devices, USA) at each timepoint. λex/em=365 nm/455 nm.
To calculate the detection limit, plot the fluorescence intensity against heparanase concentration and fit a line with linear regression. The detection limit was estimated with the following formula. LOD=3 σ/s, where σ represents standard deviation of fluorescent intensity of blank sample, s is the calculated slope of linear regression equation.
To determine the detection limit of Compound 1 (HADP) probe for heparanse, concentration-dependent studies with various concentrations of heparanse over time were performed with 5 μM 1 (HADP). The concentration increases of heparanse led to higher fluorescent intensities at the same time point due to the expedited cleavage of glyosidic bond, releasing more fluorophores. A good linear relationship was obtained in the heparanse concentration range of 0-0.01 μgμl-1 with an equation of F455 nm=650443[HPA]+12.03 (R^2=0.9968). Based on 3σ/s method, the limit of detection (LOD) of Compound 1 for heparanse was calculated to be 0.35 ng/mL (67 pM), indicating the ultra-sensitivity of Compound 1 (HADP) to detect heparanase activity. The kinetic parameters for the enzymatic cleavage of Compound 1 (HADP) were determined via time-dependent fluorescence intensity in the presence of heparanase and probe 1 (HADP) at different concentration.

cleavage by heparanase (HPLC trace) (heparanase [1]): clean conversion
fluorescence response (β-Glucuronidase): did not trigger fluorescence response
fluorescence change at 455 nm over pH [2]: no remarkable fluorescence change
limit of detection (LOD) for heparanase (heparanase [3]; 5 μM probe, 3σ/s method): 0.35 ng/mL and 67 pM
turnover number (kcat) (heparanase [3]; enzymatic cleavage by heparanase): 0.04 s⁻¹
Km (heparanase [3]; enzymatic cleavage by heparanase, read-out: Michaelis constant (Km)): 8.3 µM
SMILES: Cc1cc(=O)oc2c(F)c(O[C@@H]3O[C@H](C(=O)O)[C@@H](O[C@H]4O[C@H](CO)[C@@H](O)[C@H](O)[C@H]4NS(=O)(=O)O)[C@H](O)[C@H]3O)c(F)cc12 [Compound 1]
